Holding throughout (assay): Kinase panel profiling at 1 µmol/L (MSA or IMAP), percentage inhibition
Common to all, as to format: biochemical

Assay [1] deals with panel of 255 wild-type kinases (Homo sapiens, UniProt P04626). The conditions noted are these: kinase HER2; 1 µmol/L single concentration; read-out: %-inhibition at 1 µmol/L, HER2.
For assay [2], the target named is panel of 255 wild-type kinases (Homo sapiens, UniProt P27448). The settings on record: MARK3; 1 µmol/L single concentration; read-out: %-inhibition, MARK3.
Assay [3] has as its target T1, panel of 255 wild-type kinases (Homo sapiens, UniProt Q13976).
T1 sequence (Q13976 1-671): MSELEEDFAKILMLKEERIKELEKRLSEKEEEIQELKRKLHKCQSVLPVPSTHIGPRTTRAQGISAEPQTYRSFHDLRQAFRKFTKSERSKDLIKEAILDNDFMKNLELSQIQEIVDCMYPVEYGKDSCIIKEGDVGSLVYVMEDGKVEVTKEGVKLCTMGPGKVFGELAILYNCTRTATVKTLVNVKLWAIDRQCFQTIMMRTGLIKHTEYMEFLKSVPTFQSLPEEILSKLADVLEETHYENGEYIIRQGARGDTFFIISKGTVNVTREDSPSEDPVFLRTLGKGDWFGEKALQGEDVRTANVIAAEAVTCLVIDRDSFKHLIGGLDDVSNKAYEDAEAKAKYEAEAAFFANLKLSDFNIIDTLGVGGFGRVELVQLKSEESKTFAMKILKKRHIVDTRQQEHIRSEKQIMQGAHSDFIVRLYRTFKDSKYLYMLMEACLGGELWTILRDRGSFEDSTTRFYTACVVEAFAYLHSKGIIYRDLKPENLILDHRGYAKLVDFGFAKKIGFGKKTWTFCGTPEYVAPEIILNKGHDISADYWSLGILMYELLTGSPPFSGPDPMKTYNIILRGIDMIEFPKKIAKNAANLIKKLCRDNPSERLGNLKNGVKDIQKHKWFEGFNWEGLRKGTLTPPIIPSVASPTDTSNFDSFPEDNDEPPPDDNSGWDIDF
The conditions noted are these: kinase PGK; 1 µmol/L single concentration; read-out: %-inhibition at 1 µmol/L, PGK.

Assay [4] addresses panel of 255 wild-type kinases (Homo sapiens, UniProt Q9Y243). The conditions noted are these: AKT3 kinase assay; 1 µmol/L single concentration; read-out: %-inhibition AKT3.
The target in assay [5] is panel of 255 wild-type kinases (Homo sapiens, UniProt P51451). The conditions noted are these: BLK kinase assay; 1 µmol/L single concentration; read-out: %-inhibition BLK.
Assay [6] addresses T2, panel of 255 wild-type kinases (Homo sapiens, UniProt P43403).
T2 sequence (P43403 1-619): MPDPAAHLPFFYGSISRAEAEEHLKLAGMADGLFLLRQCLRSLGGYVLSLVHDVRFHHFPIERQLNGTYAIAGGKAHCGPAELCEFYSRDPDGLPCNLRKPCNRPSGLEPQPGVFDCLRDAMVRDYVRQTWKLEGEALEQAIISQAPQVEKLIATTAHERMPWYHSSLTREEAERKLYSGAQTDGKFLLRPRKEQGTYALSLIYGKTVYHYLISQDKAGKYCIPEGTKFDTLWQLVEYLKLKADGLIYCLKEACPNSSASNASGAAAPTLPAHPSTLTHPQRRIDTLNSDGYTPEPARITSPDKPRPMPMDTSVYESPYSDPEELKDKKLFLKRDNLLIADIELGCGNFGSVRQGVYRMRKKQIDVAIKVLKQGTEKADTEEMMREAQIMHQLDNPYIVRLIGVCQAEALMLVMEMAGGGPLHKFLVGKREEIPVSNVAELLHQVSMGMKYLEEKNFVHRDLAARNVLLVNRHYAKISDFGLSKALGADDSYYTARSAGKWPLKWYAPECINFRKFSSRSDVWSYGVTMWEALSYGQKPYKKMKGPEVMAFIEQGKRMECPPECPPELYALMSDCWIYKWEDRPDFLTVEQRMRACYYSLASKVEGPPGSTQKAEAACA
The conditions noted are these: kinase ZAP70; 1 µmol/L single concentration; read-out: %-inhibition at 1 µmol/L, ZAP70.

Assay [7] addresses T3, panel of 255 wild-type kinases (Homo sapiens, UniProt Q13470).
T3 sequence (Q13470 1-666): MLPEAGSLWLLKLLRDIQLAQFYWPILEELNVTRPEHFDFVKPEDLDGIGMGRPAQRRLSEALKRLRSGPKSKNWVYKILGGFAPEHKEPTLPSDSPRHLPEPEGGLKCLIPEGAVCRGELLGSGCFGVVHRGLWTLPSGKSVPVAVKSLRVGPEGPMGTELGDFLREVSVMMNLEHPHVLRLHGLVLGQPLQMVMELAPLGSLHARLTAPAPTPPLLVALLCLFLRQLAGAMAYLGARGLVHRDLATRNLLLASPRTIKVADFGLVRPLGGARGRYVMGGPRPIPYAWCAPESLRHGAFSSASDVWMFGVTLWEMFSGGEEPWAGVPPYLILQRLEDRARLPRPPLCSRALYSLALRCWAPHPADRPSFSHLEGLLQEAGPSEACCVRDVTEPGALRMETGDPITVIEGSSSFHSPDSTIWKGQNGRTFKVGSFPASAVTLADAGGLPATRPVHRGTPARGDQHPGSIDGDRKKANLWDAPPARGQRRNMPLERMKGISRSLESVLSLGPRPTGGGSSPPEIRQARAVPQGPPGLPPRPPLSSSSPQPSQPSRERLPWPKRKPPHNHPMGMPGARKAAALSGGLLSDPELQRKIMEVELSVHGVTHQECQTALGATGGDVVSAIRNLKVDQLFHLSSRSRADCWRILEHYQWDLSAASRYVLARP
The settings on record: kinase TNK1; 1 µmol/L single concentration; read-out: %-inhibition at 1 µmol/L, TNK1.

Assay [8] concerns the target panel of 255 wild-type kinases (Homo sapiens, UniProt P17948). The settings on record: kinase FLT1; 1 µmol/L single concentration; read-out: %-inhibition at 1 µmol/L, FLT1.

Take `CCN1C(=O)N(c2c(F)c(OC)cc(OC)c2F)Cc2cnc3[nH]c(CN4CCOCC4)cc3c21` [pemigatinib]: the inhibition at 1 µM is -4% in assay [1]; 56% in assay [2]; -1.82% in assay [3]; -2.7% in assay [4]; 27% in assay [5]; 2% in assay [6]. The values for the inhibition at 1 µM in assay [7] and in assay [8] were 5% and 95%, respectively.

As for `CO[C@]1(C(=O)N[C@@H](C)c2ccc(-n3cc(F)cn3)nc2)CC[C@H](c2nc(C)cc(Nc3cc(C)[nH]n3)n2)CC1` [pralsetinib], the inhibition at 1 µM in assay [1] was 20%; in assay [2], -8%; in assay [3], 13%; in assay [4] it was -2.71%; in assay [5] it was 84%; in assay [6], 9%. In addition, the inhibition at 1 µM in assay [7] stood at 71%; in assay [8], 96%.

In the case of `C[C@H]1Oc2cc(cnc2N)-c2c(nn(C)c2C#N)CN(C)C(=O)c2ccc(F)cc21` [lorlatinib], the inhibition at 1 µM is 21% in assay [1]; 26% in assay [2]; 0.684% in assay [3]; -0.768% in assay [4]; -6% in assay [5]; 6% in assay [6]. Besides, the values for the inhibition at 1 µM in assay [7] and in assay [8] were 97% and 3.17%, respectively.

On to `CCn1c(=O)c(-c2cc(NC(=O)Nc3ccccc3)c(F)cc2Br)cc2cnc(NC)cc21` [ripretinib], for which the inhibition at 1 µM in assay [1] is 5.51%; in assay [2], 1.78%; in assay [3], -0.449%; in assay [4], -6.42%; in assay [5] it was 26%; in assay [6] it was -8%. The inhibition at 1 µM came out at 17% in assay [7] and 91% in assay [8].

On to `Cc1nc(NC(=O)N2CCC[C@H]2C(N)=O)sc1-c1ccnc(C(C)(C)C(F)(F)F)c1` [alpelisib], for which the inhibition at 1 µM in assay [1] is 19%; in assay [2], 11%; in assay [3], -3%; in assay [4], -0.151%; in assay [5], -13%; in assay [6], 1.11%. For the same compound, the inhibition at 1 µM is -4.23% in assay [7] and 3% in assay [8].

In the case of `FC(F)(F)c1ccc(CNc2ccc(Cc3c[nH]c4ncc(Cl)cc34)cn2)cn1` [pexidartinib], the inhibition at 1 µM was 6% in assay [1]; 12% in assay [2]; 14% in assay [3]; -6% in assay [4]; 18% in assay [5]; -7% in assay [6]. Moreover, the inhibition at 1 µM in assay [7] amounted to 37%; in assay [8], 82%.

Take `CCc1nc(C(N)=O)c(Nc2ccc(N3CCC(N4CCN(C)CC4)CC3)c(OC)c2)nc1NC1CCOCC1` [gilteritinib]: the inhibition at 1 µM in assay [1] is 15%; in assay [2], 52%; in assay [3] it was 41%; in assay [4], -4.56%; in assay [5] it was 94%; in assay [6], 46%. The inhibition at 1 µM was found to be 97% in assay [7] and 95% in assay [8].

In the case of `O=C(Nc1cnn2ccc(N3CCC[C@@H]3c3cc(F)ccc3F)nc12)N1CC[C@H](O)C1` [larotrectinib], the inhibition at 1 µM was -2.32% in assay [1]; 4% in assay [2]; -2.33% in assay [3]; -5.46% in assay [4]; -4% in assay [5]; 4.69% in assay [6]. Besides, the figures for the inhibition at 1 µM in assay [7] and in assay [8] were -0.876% and -0.638%, respectively.

The values are drawn from PMC9516332 (Frontiers in Oncology, 2022).
